Results published in article PMC8949931, “cADPR Does Not Activate TRPM2” (International Journal of Molecular Sciences, 2022).

Assays:
[1] = target: T1, human TRPM2 (Homo sapiens, UniProt O94759); assay: whole-cell patch clamp, […] coinfused with […] ADPR; assay type: cell-based
T1 construct: full-length channel stably expressed in HEK293 cells

[2] = target: T2, drTRPM2 (TRPM2 from zebrafish) (Danio rerio, UniProt A0A0R4IMY7); assay: isothermal titration calorimetry (ITC), purified domain, […] °C; assay type: binding
T2 construct: isolated MHR1/2 domain, residues 1-419 of drTRPM2, N-terminal His6-tag
T2 sequence (A0A0R4IMY7 1-419): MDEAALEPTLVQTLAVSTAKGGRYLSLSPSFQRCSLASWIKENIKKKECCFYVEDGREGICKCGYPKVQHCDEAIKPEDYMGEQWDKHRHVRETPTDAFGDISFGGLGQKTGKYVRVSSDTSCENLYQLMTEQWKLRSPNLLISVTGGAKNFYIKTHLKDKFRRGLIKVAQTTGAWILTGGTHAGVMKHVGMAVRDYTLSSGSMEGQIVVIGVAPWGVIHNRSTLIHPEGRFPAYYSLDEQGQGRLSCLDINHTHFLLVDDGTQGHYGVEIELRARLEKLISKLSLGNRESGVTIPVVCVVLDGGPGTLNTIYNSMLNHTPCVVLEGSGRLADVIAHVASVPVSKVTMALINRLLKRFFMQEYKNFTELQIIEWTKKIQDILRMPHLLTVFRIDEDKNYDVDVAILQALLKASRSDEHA

T1 sequence (O94759 whole entry, the tested form may be a part): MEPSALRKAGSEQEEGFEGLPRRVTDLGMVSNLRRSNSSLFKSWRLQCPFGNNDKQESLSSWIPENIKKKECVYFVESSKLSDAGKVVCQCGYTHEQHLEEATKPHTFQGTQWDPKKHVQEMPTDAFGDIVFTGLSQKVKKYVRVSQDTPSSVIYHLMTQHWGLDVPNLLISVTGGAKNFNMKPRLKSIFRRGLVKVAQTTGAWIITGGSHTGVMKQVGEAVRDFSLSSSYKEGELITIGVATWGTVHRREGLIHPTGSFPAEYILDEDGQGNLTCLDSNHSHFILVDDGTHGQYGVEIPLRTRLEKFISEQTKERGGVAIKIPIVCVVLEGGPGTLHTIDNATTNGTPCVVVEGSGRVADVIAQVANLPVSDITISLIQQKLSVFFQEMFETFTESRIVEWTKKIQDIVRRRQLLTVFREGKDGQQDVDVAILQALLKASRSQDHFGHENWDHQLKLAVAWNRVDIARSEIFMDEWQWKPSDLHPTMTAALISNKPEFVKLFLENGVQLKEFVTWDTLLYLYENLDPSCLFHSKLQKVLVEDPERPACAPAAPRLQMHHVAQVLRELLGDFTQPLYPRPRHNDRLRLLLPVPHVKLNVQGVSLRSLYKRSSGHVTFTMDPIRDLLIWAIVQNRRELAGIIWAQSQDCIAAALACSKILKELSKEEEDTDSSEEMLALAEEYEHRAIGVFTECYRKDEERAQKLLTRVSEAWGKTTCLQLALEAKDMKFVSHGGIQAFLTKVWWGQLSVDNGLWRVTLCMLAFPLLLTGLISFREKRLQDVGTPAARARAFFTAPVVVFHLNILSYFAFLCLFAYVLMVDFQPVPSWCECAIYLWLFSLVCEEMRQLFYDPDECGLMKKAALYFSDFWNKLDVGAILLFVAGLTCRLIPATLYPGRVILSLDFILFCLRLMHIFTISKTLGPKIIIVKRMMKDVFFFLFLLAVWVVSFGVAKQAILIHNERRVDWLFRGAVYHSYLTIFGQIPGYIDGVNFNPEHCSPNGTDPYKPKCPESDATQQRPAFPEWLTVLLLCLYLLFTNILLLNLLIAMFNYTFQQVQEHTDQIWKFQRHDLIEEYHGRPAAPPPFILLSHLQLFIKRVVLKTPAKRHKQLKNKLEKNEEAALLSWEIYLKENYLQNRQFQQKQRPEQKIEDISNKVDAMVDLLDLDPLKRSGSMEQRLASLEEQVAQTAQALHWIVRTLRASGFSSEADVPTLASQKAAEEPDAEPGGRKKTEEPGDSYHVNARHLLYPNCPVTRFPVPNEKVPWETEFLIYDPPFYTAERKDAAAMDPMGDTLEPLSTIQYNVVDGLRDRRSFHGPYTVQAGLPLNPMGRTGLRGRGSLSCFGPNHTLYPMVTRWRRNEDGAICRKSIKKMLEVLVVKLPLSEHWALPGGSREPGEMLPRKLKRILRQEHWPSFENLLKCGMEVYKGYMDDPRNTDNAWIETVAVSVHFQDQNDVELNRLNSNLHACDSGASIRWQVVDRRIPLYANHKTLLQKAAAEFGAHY

| SMILES | whole-cell patch clamp, 1 mM coinfused with 125 μM ADPR [1] | Kd [2] [nM] |
| --- | --- | --- |
| Nc1ncnc2c1nc(Br)n2[C@@H]1O[C@H](COP(=O)(O)OP(=O)(O)OC[C@H]2OC(O)[C@H](O)[C@@H]2O)[C@@H](O)[C@H]1O (stereo partly drawn) [8-Br-ADPR] | 8-Br-ADPR and 8-Br-cADPR reduce the ADPR-induced current in TRPM2-expressing HEK293 cells | 1400 |
| Nc1ncnc2c1ncn2[C@@H]1O[C@H](COP(=O)(O)OP(=O)(O)OC[C@H]2OC(O)[C@H](O)[C@@H]2O)[C@@H](O)[C@H]1O (stereo partly drawn) [ADPR] | – | 2200 |
